Data from publication PMC10263210, “Design, Synthesis and Biological Evaluation of Novel MDH Inhibitors Targeting Tumor Microenvironment” (Pharmaceuticals, 2023).

What was measured:
[1] = Lactate consumption in treated cells; type: cell-based; details: cells treated with compound
Text: In contrast, high aerobic glycolysis distinguishes cancer cells from normal cells and has been exploited to detect tumors in vivo. […] Cancer cells consume the secreted lactate to produce ATP through the TCA cycle and oxidative phosphorylation processes. Some cancer cells use lactate as a substrate for TCA intermediates via monocarboxylate transporters (MCT1/4) as well as for ATP production. Lactate can be converted to pyruvate using lactate dehydrogenase (LDH) and can be further converted to acetyl-CoA by […] for fatty acid synthesis.

[2] = test system: CD73; experiment: Western blot of CD73 expression under hypoxia; type: cell-based, human; details: A549 cells
Experimental: It has been reported that CD73 expression is induced by HIF-1α under hypoxic conditions. Therefore, we examined whether the expression of CD73 is inhibited by compound 50 under hypoxia in A549 lung cancer cells. […] To confirm the effect of compound 50 on CD73 expression, we performed ELISA for CD73.
(§1) Human lung carcinoma A549 cells were cultured in Dulbecco’s modified Eagle’s medium and H460 cells were cultured in RPMI 1640 medium containing 10% fetal bovine serum and 1% penicillin/streptomycin at 37 °C with a 5% Co2 hypoxia experimental condition. The cells were grown in the hypoxia chamber (1% O2, 94% N2, and 5% Co2 in a multigas incubator)
(§2) The cells were lysed with RIPA buffer (Millipore, Billerica, MA, USA) containing a protease inhibitor cocktail (Roche, Basel, Switzerland) for 15 min at 4 °C and centrifuged at 12,000 rpm for 10 min. The lysates were quantified using a protein assay kit (Bio-Rad, Hercules, CA, USA). The lysates were subjected to an SDS-PAGE analysis and transferred to PVDF membranes (Millipore, Billerica, MA, USA). The proteins were identified using the appropriate antibodies: HIF-1α (BD Transduction Laboratories, San Diego, CA, USA), pyruvate dehydrogenase kinase 1 (PDK1) (Cell Signaling, Danvers, MA, USA), GLUT1 and β-action (Santa Cruz Biotechnology, Danvers, MA, USA), and CD73 (Proteintech, Rosemont, IL, USA).

[3] = test system: HIF-1α; experiment: Western blot of HIF-1α and its target genes under hypoxia; type: cell-based, human; details: A549 cells, hypoxia
Experimental: Previously, it has been reported that the inhibition of MDH1 or MDH2 enzymes is related to HIF-1a expression levels. We investigated whether compound 50 decreases HIF-1α accumulation in A549 cells (Figure 6). […] Additionally, we confirmed that compound 50 suppressed the protein expression of HIF-1α target genes, such as GLUT1 and PDK1 (Figure 6), as clearly shown by the Western blot assay.
as §1, §2

[4] = test system: A549 cells; experiment: Intracellular ATP content (ATPlite); type: cell-based, human; details: 6 h
Experimental: (§3) Malate transported to the interior of the mitochondria is oxidized to OAA by mitochondrial MDH2, thereby generating NADH, which then enters the ETC to produce ATP. Because inhibition of MAS is expected to reduce ATP production in cancer cells, the total amount of ATP was measured after treatment with compound 50.
A549 cells (1 × 10^4 cells/96-well plate) were incubated for 6 h with or without drugs. After removing the supernatant, an ATP assay was performed using ATPlite (PerkinElmer, Waltham, MA, USA) according to the manufacturer’s instructions. ATP content was measured using a luminometer (Synergy HTX multimode reader, Winoski, VT, USA).

[5] = biological target: T1, human recombinant MDH2 (Homo sapiens, UniProt P40926); experiment: MDH2 enzyme activity assay (oxaloacetate-dependent NADH oxidation); type: biochemical; details: means of three experiments
T1 construct: purchased BioVision
T1 sequence (P40926 25-338): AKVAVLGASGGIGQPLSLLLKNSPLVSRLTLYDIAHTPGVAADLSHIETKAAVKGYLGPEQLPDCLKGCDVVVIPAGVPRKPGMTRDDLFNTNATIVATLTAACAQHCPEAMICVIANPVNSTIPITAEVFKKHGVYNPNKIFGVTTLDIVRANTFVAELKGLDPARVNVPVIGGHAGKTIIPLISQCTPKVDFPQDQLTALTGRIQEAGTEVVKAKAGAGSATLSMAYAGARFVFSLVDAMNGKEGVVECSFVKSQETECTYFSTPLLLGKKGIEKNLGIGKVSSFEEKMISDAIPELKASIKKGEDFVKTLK
Text: To develop the dual inhibitors of MDH1 and MDH2, we screened the newly synthesized LW1497 derivatives using MDH and MDH2 enzyme assays. LW1497 was used as the positive control for the MDH1/2 dual inhibitor. We evaluated the ability of the synthesized compounds to inhibit human recombinant MDH1 and MDH2 enzymatic activity using an oxaloacetate-dependent NADH oxidation assay (Table 1, Table 2, Table 3, Table 4, Table 5 and Table 6). Our SAR optimization strategy focused on four different parts of LW1497: (A) the introduction of various groups at different positions on the amide phenyl ring; (B) the replacement of the 3-(4-(2,4,4-trimethylpentan-2-yl) alkyl chain; (C) the alteration of the amide portion; and (D) the modification of the oxypropanamide linker portion (Figure 1).
The activities of MDH1 and MDH2 were confirmed using an oxaloacetate-dependent NADH oxidation assay. Experiments were conducted using 100 mM of potassium phosphate buffer (pH 7.4) and human recombinant MDH1 (BioVision) and MDH2 (BioVision), and the results were obtained by measuring the absorbance at 340 nm. Enzyme activity was measured using a plate reader at a wavelength of 340 nm.

[6] = test system: A549 cells; experiment: Real-time ATP production rate (XF analyzer); type: cell-based, human
Text: We then examined whether the ATP production pattern was altered by drug treatment using an XF analyzer for real-time metabolic analysis (Figure 5).

[7] = test system: A549 cells; experiment: ADP/ATP ratio assay; type: cell-based, human
Experimental: as §3
The ADP/ATP ratio assay kit (Sigma-Aldrich, USA) was used for ADP/ATP determination according to the manufacturer’s instructions. Samples for analysis were prepared using the ADP/ATP ratio assay kit. A549 cells were cultured directly in an assay microplate. The culture medium was removed, and then 90 µL of ATP reagent was added to each well and incubated for 1 min at room temperature. Luminescence was measured on a luminometer for ATP (RLUA), and the plate was incubated for an additional 10 min. Next, the luminescence was read on a luminometer for ATP (RLUB). Five microliters of ADP reagent were added to each well. After 1 min, the luminescence was read (RLUC).

[8] = test system: A549 lung cancer cells; experiment: Cell growth inhibition assay (SRB), A549; type: cell-based; details: Homo sapiens, means of three experiments, read-out: Cell Viability IC50 A549
Experimental: At the same time, we investigated the effect of the compounds on the growth inhibition of A549 and H460 lung cancer cells bearing KRAS and LKB1 mutations. […] Compound 50 containing a piperidine linker was selected for further analysis.
as §1
Cell growth inhibition was assessed using sulforhodamine B (SRB) as described in [34]. The cells were fixed with 10% formalin (Sigma-Aldrich) and stained with 0.4% SRB. Protein-bound dye was dissolved in 10 mM of Tris, and its optical density was measured at 540 nm.

IC50 [5]: 2.24 ± 0.09 µM
melting point: 139 to 140 °C
IC50 [8]: 3.94 ± 0.04 µM
SMILES: CC(C)(C)CC(C)(C)c1ccc(N2CCC(C(=O)Nc3cccc(OC(F)(F)F)c3)CC2)cc1 [Compound 50, N-(3-(Trifluoromethoxy)phenyl)-1-(4-(2,4,4-trimethylpentan-2-yl)phenyl)piperidine-4-carboxamide]
Lactate consumption [1]: did not change significantly
CD73 expression increased by HIF-1α [2]: significantly decreased
HIF-1α accumulation [3]: decreased HIF-1α accumulation in a dose-dependent manner
protein expression of HIF-1α target genes GLUT1 and PDK1 ([3]; Western blot): suppressed
ATP level [4]: reduced ATP level
total ATP decrease ([6]; 5 µM): 14.6%
total ATP decrease ([6]; 10 µM): 28.6%
ADP/ATP [7]: increase in ADP/ATP
